Source: US12091398B2, “PD-L1 antagonist compound” (ADLAI NORTYE BIOPHARMA CO., LTD., priority 2019, dated 2024)

tested on: PD-1/PD-L1 interaction; assay: Cell based PD-1/PD-L1 NFAT reporter assay; design: species or system human; conditions: Homo sapiens, 6 h, PD-1/NFAT-Reporter-Jurkat cells co-cultured with TCR activator/PD-L1-CHO cells; 6 hour incubation; luciferase; calibrated to Atezolizumab 10 nM; read-out: Absolute EC50
Protocol: Cell Based PD-1/PD-L1 NFAT Reporter Assay
Compounds of the present patent were tested in a cell based PD-1/PD-L1 NFAT reporter assay.
The cell-based luciferase reporter assay is used for monitoring the PD-1/PD-L1 inhibitor by characterizing the biological activity of PD-1: PD-L1 interactions in cellular context. PD-1/NFAT-Reporter-Jurkat cells stably over-expressing human PD-1 with NFAT reporter are used as effector cells. TCR activator/PD-L1—CHO cells over-expressing PD-L1 and an engineered T cell receptor (TCR) activator are used as target cells. When these two cells are co-cultivated, TCR complexes on effector cells are activated by TCR activator on target cells, resulting in expression of the NFAT luciferase reporter. However, PD1 and PD-L1 (or PD-L2) ligation prevents TCR activation and suppresses the NFAT-responsive luciferase activity. This inhibition can be specifically reversed by anti-PD1 or anti-PD-L1 inhibitors. PD1/PD-L1 inhibitors block PD1:PD-L1 interaction and promote TCR activation, resulting in reactivation of the NFAT responsive luciferase reporter.
PD-1/NFAT—Reporter—Jurkat cell (Cat: 60535) and TCR activator/PD-L1—CHO cell (Cat: 60536) were purchased from BPS Bioscience. Anti-human PD-L1 antibody (Atezolizumab, Cat: A2004) was purchased from Selleck; luciferase reporter gene expression detection kit (ONE-Glo™ Luciferase Assay System, Cat: E6120) was purchased from Promega; multifunction plate reader (SpectraMax i3x) was purchased from Molecular Devices.
PD-1/NFAT—Reporter—Jurkat cells and TCR activator/PD-L1—CHO cells were cultured in recommended media respectively.
Harvest TCR activator/PD-L1-CHO cells from culture and seed cells at a density of 35,000 cells per well into 96-well microplate in 100 µl of growth medium. Incubate cells at 37° C. in a CO2 incubator overnight. Next day, discard the culture media, add diluted compound in assay medium for 30 min. Anti-PD-L1 antibody (Atezolizumab, final concentration 10 nM) and 0.1% DMSO were the positive and negative control, respectively. Harvest the PD-1/NFAT-reporter-Jurkat cells by centrifugation and add to the wells. After 6 hour incubation, perform luciferase assay using the ONE-Glo™ Luciferase Assay System, following the manufacturer's assay protocol.
Anti-PD-L1 antibody (Atezolizumnab, 10 nM) was used as positive control to calibrate the inhibition rate using the following equation: % inhibition=(Sample luminescence/Average vehicle group luminescence−1)/(Average PD-L1 group luminescence/Average vehicle group luminescence−1)×100%.

EC50 [nM]	SMILES
5490	Cc1nn(CCCN2CC[C@@H](O)C2)c2cccc(-c3cccc(COc4cc(OCc5cncc(C#N)c5)c(CN[C@@H](CO)C(=O)O)cc4Cl)c3Br)c12 [Compound 4]
232	N#Cc1cncc(COc2cc(OCc3cccc(-c4cccc5c4cnn5CCCCN4CC[C@@H](O)C4)c3Br)c(Cl)cc2CNC[C@@H]2CCC(=O)N2)c1 [Compound 83]
153	N#Cc1cc(C#N)cc(COc2cc(OCc3cccc(-c4cccc5c4cnn5CCCCN4CC[C@@H](O)C4)c3Br)c(Cl)cc2CN[C@@H](CO)C(=O)O)c1 [Compound 44]
997	O=C1CC(COc2cc(OCc3cccc(-c4cccc5c4cnn5CCCCN4CC[C@@H](O)C4)c3Br)c(Cl)cc2CN[C@@H](CO)C(=O)O)CN1 (stereo partly drawn) [Compound 48]
2820	CCNC(=O)COc1cc(OCc2cccc(-c3cccc4c3cnn4CCCCN3CC[C@@H](O)C3)c2Br)c(Cl)cc1CN[C@@H](CO)C(=O)O [Compound 50]
339	Cc1c(OCCCN2CC[C@@H](O)C2)cccc1-c1cccc2c1cnn2Cc1cc(OCc2cncc(C#N)c2)c(CN[C@@H](CO)C(=O)O)cc1Cl [Compound 54, (5-chloro-2-((5-cyanopyridin-3-yl)methoxy)-4-((4-(3-(3-((R)-3-hydroxypyrrolidin-1-yl)propoxy)-2-methylphenyl)-1H-indazol-1-yl)methyl)benzyl)-L-serine]
34	COc1nc(-c2cccc(-c3cccc4c3cnn4Cc3cc(OCc4cncc(C#N)c4)c(CN[C@@H](CO)C(=O)O)cc3Cl)c2Cl)ccc1CNC[C@@H]1CCC(=O)N1 [Compound 76]
134	Cc1c(COc2cc(OCc3cncc(C#N)c3)c(CNCCO)cc2Cl)cccc1-c1cccc2c1cnn2Cc1cc(OCc2cncc(C#N)c2)c(CNCCO)cc1Cl [Compound 71]
3240	CC(CO)(CO)NCc1cc(Cl)c(OCc2cccc(-c3cccc4c3cnn4CCCCN(CCO)CCO)c2Br)cc1OCc1cncc(C#N)c1 [Compound 15]
318	N#Cc1cncc(COc2cc(OCc3cccc(-c4cccc5c4cnn5CCCCN4CC[C@@H](O)C4)c3Br)c(Cl)cc2CNCCO)c1 [Compound 80]
418	Cc1c(COc2cc(OCc3cncc(C#N)c3)c(CN[C@@H](CO)C(=O)O)cc2Cl)cccc1-c1cccc2c1cnn2Cc1cc(OCc2cncc(C#N)c2)c(CN[C@@H](CO)C(=O)OC(C)C)cc1Cl [Compound 65, (5-chloro-4-((3-(1-(2-chloro-5-((5-cyanopyridin-3-yl)methoxy)-4-((((S)-3-hydroxy-1-isopropoxy-1-oxopropan-2-yl)amino)methyl)benzyl)-1H-indazol-4-yl)-2-methylbenzyl)oxy)-2-((5-cyanopyridin-3-yl)methoxy)benzyl)-L-serine]
> 10000	CN1CCC2(CC1)CCN(Cc1cccc(-c3cccc4c3cnn4Cc3cc(OCc4cncc(C#N)c4)c(CN[C@@H](CO)C(=O)O)cc3Cl)c1Cl)CC2 [Compound 94, (5-chloro-4-((4-(2-chloro-3-((9-methyl-3,9-diazaspiro[5.5]undecan-3-yl)methyl)phenyl)-1H-indazol-1-yl)methyl)-2-((5-cyanopyridin-3-yl)methoxy)benzyl)-L-serine]
1540	N#CCCCOc1cc(OCc2cccc(-c3cccc4c3cnn4CCCCN3CC[C@@H](O)C3)c2Br)c(Cl)cc1CN[C@@H](CO)C(=O)O [Compound 35]
1130	N#Cc1cncc(COc2cc(OCc3cccc(-c4cccc5c4cnn5C4CCN(C(CO)CO)CC4)c3Br)c(Cl)cc2CN[C@@H](CO)C(=O)O)c1 [Compound 22]
1750	CC1(C(=O)O)CCN(Cc2cc(Cl)c(OCc3cccc(-c4cccc5c4cnn5CCCCN4CC[C@@H](O)C4)c3Br)cc2OCc2cncc(C#N)c2)C1 (stereo partly drawn) [Compound 84]
323	CC(CO)(CO)NCc1cc(Cl)c(OCc2cccc(-c3cccc4c3cnn4[C@H]3CC[C@H](N4CC[C@@H](O)C4)CC3)c2Br)cc1OCc1cncc(C#N)c1 [Compound 14]
307	COc1cc(Cn2ncc3c(-c4cccc(COc5cc(OC)c(CN[C@@H](CO)C(=O)O)cc5Cl)c4C)cccc32)c(Cl)cc1CN[C@@H](CO)C(=O)O [Compound 66, (4-((3-(1-(4-((((S)-1-carboxy-2-hydroxyethyl)amino)methyl)-2-chloro-5-methoxybenzyl)-1H-indazol-4-yl)-2-methylbenzyl)oxy)-5-chloro-2-methoxybenzyl)-L-serine]
1150	N#Cc1cncc(COc2cc(Cn3ncc4c(-c5cccc(OCCCN6CC[C@@H](O)C6)c5Br)cccc43)c(Cl)cc2CN[C@@H](CO)C(=O)O)c1 [Compound 55, (4-((4-(2-bromo-3-(3-((R)-3-hydroxypyrrolidin-1-yl)propoxy)phenyl)-1H-indazol-1-yl)methyl)-5-chloro-2-((5-cyanopyridin-3-yl)methoxy)benzyl)-L-serine]
> 10000	O=C(O)[C@H](CO)NCc1cc(Cl)c(OCc2cccc(-c3cccc4c3cnn4CCCCN3CC[C@@H](O)C3)c2Br)cc1OCC(=O)N1CC[C@@H](O)C1 [Compound 49, (4-((2-bromo-3-(1-(4-((R)-3-hydroxypyrrolidin-1-yl)butyl)-1H-indazol-4-yl)benzyl)oxy)-5-chloro-2-(2-((R)-3-hydroxypyrrolidin-1-yl)-2-oxoethoxy)benzyl)-L-serine]
220	N#Cc1cncc(COc2cc(OCc3cccc(-c4cccc5c4cnn5Cc4ccc(CN[C@@H](CO)C(=O)O)cc4Cl)c3Br)c(Cl)cc2CN[C@@H](CO)C(=O)O)c1 [Compound 59, (4-((4-(2-bromo-3-((4-((((S)-1-carboxy-2-hydroxyethyl)amino)methyl)-2-chloro-5-((5-cyanopyridin-3-yl)methoxy)phenoxy)methyl)phenyl)-1H-indazol-1-yl)methyl)-3-chlorobenzyl)-L-serine]
138	Cc1c(COc2cc(OCc3cncc(C#N)c3)c(CNC(C)(CO)CO)cc2Cl)cccc1-c1cccc2c1cnn2CCCN1CC[C@@H](O)C1 [Compound 25]
1760	CC1(C)OCC(N2CCC(n3ncc4c(-c5cccc(COc6cc(OCc7cncc(C#N)c7)c(CN[C@@H](CO)C(=O)O)cc6Cl)c5Br)cccc43)CC2)CO1 [Compound 17]
338	CC(CO)(CO)NCc1cc(Cl)c(OCc2cccc(-c3cccc4c3cnn4CCCCN3CC[C@@H](O)C3)c2Br)cc1OCc1cncc(C#N)c1 [Compound 7]
2720	O=C(O)[C@H](CO)NCc1cc(Cl)c(OCc2cccc(-c3cccc4c3cnn4CCCCN3CC[C@@H](O)C3)c2Br)cc1OCC1CCOCC1 [Compound 45]
242	CC(CO)(CO)NCc1cc(Cl)c(OCc2cccc(-c3cccc4c3cnn4CCCN3CCC(O)CC3)c2Br)cc1OCc1cncc(C#N)c1 [Compound 13]
2830	Cc1c(COc2cc(OCc3cncc(C#N)c3)c(CN)cc2Cl)cccc1-c1cccc2c1cnn2Cc1cc(OCc2cncc(C#N)c2)c(CN)cc1Cl [Compound 75]
> 10000	Cc1cncc(COc2cc(OCc3cccc(-c4cccc5c4cnn5CCCCN4CC[C@@H](O)C4)c3Br)c(Cl)cc2CN[C@@H](CO)C(=O)O)c1 [Compound 39]
2380	N#Cc1cncc(COc2cc(OCc3cccc(-c4cccc5c4ccn5CCCN4CC[C@@H](O)C4)c3Br)c(Cl)cc2CN[C@@H](CO)C(=O)O)c1 [Compound 3]
1830	Cc1c(COc2cc(OCc3cncc(C#N)c3)c(CN[C@@H](CO)C(=O)O)cc2Cl)cccc1-c1ccnc2c1cnn2CCCCN1CC[C@@H](O)C1 [Compound 26]

same assay, conditions: Homo sapiens; PD-1/NFAT-Reporter-Jurkat cells co-cultured with TCR activator/PD-L1-CHO cells; 6 hour incubation; luciferase; calibrated to Atezolizumab 10 nM; read-out: Absolute EC50

SMILES	EC50 [nM]
N#Cc1cncc(COc2cc(Cn3ncc4c(-c5cccc(OCc6ccc(CN7CC[C@@H](O)C7)cc6)c5Cl)cccc43)c(Cl)cc2CN[C@@H](CO)C(=O)O)c1 [Compound 90, (5-chloro-4-((4-(2-chloro-3-((4-(((R)-3-hydroxypyrrolidin-1-yl)methyl)benzyl)oxy)phenyl)-1H-indazol-1-yl)methyl)-2-((5-cyanopyridin-3-yl)methoxy)benzyl)-L-serine]	1060

same assay, conditions: PD-1/NFAT-Reporter-Jurkat cells co-cultured with TCR activator/PD-L1-CHO cells; 6 hour incubation; luciferase; calibrated to Atezolizumab 10 nM; read-out: Absolute EC50

EC50 [nM]	SMILES
142	CC(CO)(CO)NCc1cc(Cl)c(OCc2cccc(-c3cccc4c3cnn4CCCN3CC[C@@H](O)C3)c2Br)cc1OCc1cncc(C#N)c1 [Compound 11]
241	N#Cc1cncc(COc2cc(OCc3cccc(-c4cccc5c4cnn5CCCCN4CC[C@@H](O)C4)c3Br)c(Cl)cc2CN[C@@H](CO)C(=O)O)c1 [Compound 5]
> 370	CC(CO)(CO)NCc1cc(Cl)c(OCc2cccc(-c3cccc4c3cnn4CCCN3CC[C@@H](O)C3)c2Br)cc1OCc1cncc(C#N)c1 [Compound 33]
